Measurements reported in US20240254123A1, “PYRIDOPYRIMIDINE DERIVATIVES USEFUL AS WEE1 KINASE INHIBITORS” (APREA THERAPEUTICS, INC., priority 2021, published 2024).

How the values were obtained:
PLK1 = PLK1 (Homo sapiens, UniProt P53350); test: in vitro enzymatic inhibitory activity, PLK1 kinase, 10-dose IC50 mode; format: biochemical; details: 10 μM ATP
Protocol: (§1) Compounds were tested against two kinases.
(§2) Data includes raw data, % Enzyme activity (relative to DMSO controls) and curve fits.

WEE1 [1] = molecular target: T1, WEE1 (Homo sapiens, UniProt P30291); test: Guava flow cytometry cell cycle assay (DNA content per cell, propidium iodide); format: cell-based
T1 construct: Drug treated cells are fixed and stained with propidium iodide (PI); endogenous in cells
T1 sequence (P30291 whole entry): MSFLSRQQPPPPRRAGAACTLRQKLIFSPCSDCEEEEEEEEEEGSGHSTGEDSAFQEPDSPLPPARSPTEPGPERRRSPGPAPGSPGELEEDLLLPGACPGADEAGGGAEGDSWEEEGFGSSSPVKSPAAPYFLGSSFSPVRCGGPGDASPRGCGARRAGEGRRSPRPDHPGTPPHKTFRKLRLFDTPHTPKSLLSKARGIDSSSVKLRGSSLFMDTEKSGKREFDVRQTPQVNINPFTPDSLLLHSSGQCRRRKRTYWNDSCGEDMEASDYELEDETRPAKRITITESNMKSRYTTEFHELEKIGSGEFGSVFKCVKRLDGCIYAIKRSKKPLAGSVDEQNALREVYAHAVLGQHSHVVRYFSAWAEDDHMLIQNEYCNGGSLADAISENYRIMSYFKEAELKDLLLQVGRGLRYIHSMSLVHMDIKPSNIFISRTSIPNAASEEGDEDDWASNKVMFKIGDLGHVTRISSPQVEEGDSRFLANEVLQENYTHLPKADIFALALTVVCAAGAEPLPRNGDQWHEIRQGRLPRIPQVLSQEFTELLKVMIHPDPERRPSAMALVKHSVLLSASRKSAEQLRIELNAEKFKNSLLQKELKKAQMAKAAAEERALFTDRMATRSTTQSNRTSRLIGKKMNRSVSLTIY
From the text: In this example, compounds described herein were subject to an assay that detects changes the phases of the cell cycle upon drug treatment, permitting the identification of drugs that affect cell proliferation in a specific manner. For example, problematic DNA replication causes the percentage of cells in S phase to increase. Thus, quantification of cells in S phase permits identification of drugs that cause defects in DNA replication. Similarly, drugs that selectively defects in progression through G2/M can also be identified. Moreover, synergy between assayed drugs and known cell cycle regulators can be determined, as exemplified by the effect of ATR inhibition when combined with agents that slow DNA replication, which causes replication fork collapse into DSBs and complete loss of DNA synthesis. Two novel drugs can also be combined to quantify synergistic effects on specific cell cycle phases.
The assay operates by the quantification of DNA content per cell by flow cytometry. Cells are assessed for effects on cell cycle using a Guava EasyCyte™ flow cytometer (Austin, TX). Drug treated cells are fixed and stained with propidium iodide (PI) and resuspended in phosphate-buffered saline containing the PI staining buffer. During flow cytometry, PI is excited at 528 nm and is detected in a 610/20 bandpass. Readout of the […] is optical density of DNA-staining dye. The assay generates a histogram showing count of cells by amount of DNA, which is an indicator of place in the cell cycle. This rapid assay detects relative changes in the cell cycle upon drug treatment upon comparison vehicle-treated and single-agent controls for detection of combinatorial interactions. See, Table 4.

WEE1 [2] = molecular target: T1, WEE1; test: in vitro enzymatic inhibitory activity, WEE1 kinase, 10-dose IC50 mode; format: biochemical; details: 10 μM ATP
Protocol: as §1, §2

Sequence of PLK1 (P53350 whole entry, species assumed): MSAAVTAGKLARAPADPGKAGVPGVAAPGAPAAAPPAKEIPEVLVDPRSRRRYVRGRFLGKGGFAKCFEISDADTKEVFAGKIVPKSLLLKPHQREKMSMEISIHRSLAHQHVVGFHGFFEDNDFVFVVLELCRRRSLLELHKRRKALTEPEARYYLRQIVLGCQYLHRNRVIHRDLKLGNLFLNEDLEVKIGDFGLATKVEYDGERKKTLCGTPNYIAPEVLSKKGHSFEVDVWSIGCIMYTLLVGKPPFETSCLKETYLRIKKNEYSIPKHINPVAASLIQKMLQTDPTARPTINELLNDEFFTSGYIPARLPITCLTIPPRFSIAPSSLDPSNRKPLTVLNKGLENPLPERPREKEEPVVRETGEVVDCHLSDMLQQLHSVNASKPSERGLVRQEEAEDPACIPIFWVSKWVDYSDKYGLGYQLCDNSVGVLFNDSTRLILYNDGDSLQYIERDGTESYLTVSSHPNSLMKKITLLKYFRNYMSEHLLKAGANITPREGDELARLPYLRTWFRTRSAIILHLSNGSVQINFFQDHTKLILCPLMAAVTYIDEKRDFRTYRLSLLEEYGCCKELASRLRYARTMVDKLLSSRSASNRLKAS

C=CCn1c(=O)c2cnc(Nc3ccc(N4CCN(C)CC4)cc3)nc2n1-c1cccc(C(C)(C)O)n1 [AZD1775]
IC50 (PLK1): 159 nM

CN1CCc2ccc(Nc3ncc4c(=O)n(-c5c(Cl)cccc5Cl)cc(Br)c4n3)cc2C1 [Compound P11, 8-bromo-6-(2,6-dichlorophenyl)-2-[(2-methyl-3,4-dihydro-1H-isoquinolin-7-yl)amino]pyrido[4,3-d]pyrimidin-5-one]
WEE1 Guava MEC Guava MEC (WEE1 [1]; single agent, unit assumed): 0.313 µM | WEE1 Guava MEC with 20 nM GEM (WEE1 [1]; with 20 nM GEM, in µM (unit assumed)): 0.156 | IC50 (WEE1 [2]): 31 nM
